PubChem BioAssay (NCI)
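Following 48 hours of exposure in 96-well plates, responses at five concentrations were used to interpolate endpoints linearly. The concentration for 50% growth inhibition is given as GI50. TGI: total growth inhibition.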

Legend:
Experiment in all cases: NCI tumour cell line growth inhibition, 48 h
ACHN renal = tested on: ACHN renal
COLO 205 colon = tested on: COLO 205 colon
MALME-3M melanoma = tested on: MALME-3M melanoma
SF-539 CNS = tested on: SF-539 CNS
SK-MEL-28 melanoma = tested on: SK-MEL-28 melanoma
SNB-19 CNS = tested on: SNB-19 CNS
SNB-75 CNS = tested on: SNB-75 CNS
SW-620 colon = tested on: SW-620 colon
BT-549 breast = tested on: BT-549 breast
HS 578T breast = tested on: HS 578T breast

Structure (SMILES)	TGI (ACHN renal)	TGI (COLO 205 colon)	TGI (MALME-3M melanoma)	TGI (SF-539 CNS)	TGI (SK-MEL-28 melanoma)	TGI (SNB-19 CNS)	TGI (SNB-75 CNS)	TGI (SW-620 colon)	GI50 (ACHN renal)	GI50 (BT-549 breast)	TGI (BT-549 breast)	GI50 (COLO 205 colon)	GI50 (MALME-3M melanoma)	GI50 (SF-539 CNS)	GI50 (SNB-19 CNS)	GI50 (SNB-75 CNS)	GI50 (SW-620 colon)	GI50 (SK-MEL-28 melanoma)	GI50 (HS 578T breast)	TGI (HS 578T breast)
CCCOc1ccc(/C=C/c2cc(OC)c(OC)c(OC)c2)cc1	> 100 µM	2.42 µM	84.8 µM	0.754 µM	> 100 µM	> 100 µM	0.603 µM	> 100 µM												
CC(=O)/C=C1/c2ccccc2N(C(C)=O)C1O (configuration not stated)	> 100 µM	> 100 µM		> 100 µM	> 100 µM	> 100 µM	> 100 µM	> 100 µM												
O=c1cc/c(=N\Nc2ccccc2)c(=O)/c1=N/Nc1ccccc1	> 50 µM	> 50 µM	> 50 µM	> 50 µM		> 50 µM	> 50 µM	> 50 µM	> 50 µM	> 50 µM	> 50 µM	> 50 µM	> 50 µM	> 50 µM	> 50 µM	> 50 µM	> 50 µM			
CN1C(c2ccccc2)CC(=Nc2ccccc2)CC1c1ccccc1 (configuration not stated)		22.8 µM	22.9 µM		23.2 µM	27.8 µM	50.4 µM	22.9 µM												
COC(=O)c1nc(-c2ccc(Cl)c(Cl)c2)nc2ccccc12	> 100 µM		> 100 µM	> 61.3 µM	> 100 µM	79.5 µM	11.3 µM	> 100 µM												
COc1cc(C)cc2c1OC(c1ccccc1)CC2=O (configuration not stated)	> 100 µM	> 100 µM	> 100 µM	> 100 µM	> 100 µM	> 100 µM	> 100 µM	> 100 µM	> 100 µM	> 100 µM	> 100 µM	> 100 µM	> 100 µM	> 100 µM	> 100 µM	> 100 µM	> 100 µM	> 100 µM		
[N-]=[N+]=Nc1ncc(-c2ccc(C(F)(F)F)cc2)c(NC2CCCCCC2)n1	> 10 µM	> 10 µM	> 10 µM	> 10 µM	> 10 µM	> 10 µM	> 10 µM	> 10 µM	> 10 µM	> 10 µM	> 10 µM	> 10 µM	> 10 µM	> 10 µM	> 10 µM	> 10 µM	> 10 µM	> 10 µM		
C=CCOc1cc2c(cc1C(C)c1ccc(OC)cc1)OCO2 (configuration not stated)	> 100 µM		> 100 µM	1.34 µM	> 100 µM	> 100 µM	0.527 µM	> 100 µM												
COc1ccc2[nH]c3c(cnn4cnnc34)c2c1	> 100 µM	> 100 µM	> 100 µM	> 100 µM	> 100 µM	> 100 µM	> 100 µM	> 100 µM												
Cc1ccc2sc3cc(=O)cc(C)c-3nc2c1	> 100 µM	> 100 µM		> 100 µM	> 100 µM	> 100 µM	> 100 µM	> 100 µM												
CCCOc1ccc(/C=C\c2cc(OC)c(OC)c(OC)c2)cc1	> 100 µM	> 100 µM	> 100 µM	> 100 µM	> 100 µM	> 100 µM	> 100 µM	> 100 µM												
CCOC(=O)c1sc(=S)c2c(C(=O)c3ccccc3)c(C(=O)c3ccccc3)sc2c1C(=O)OCC	9.32 µM	45.6 µM		17.8 µM	> 100 µM	> 100 µM	> 100 µM	> 100 µM	3 µM	3.43 µM	12.6 µM	15.8 µM		3.82 µM	8.87 µM	22.6 µM	4.25 µM	25.3 µM	3.54 µM	61.1 µM
CCCCCCn1c(-c2ccc(C(=O)O/N=C(\N)c3ccc(OC)cc3)cc2)nc(-c2ccccc2)c1-c1ccccc1	1.23 µM		3.55 µM	3.02 µM	> 100 µM	4.64 µM	3.09 µM		0.354 µM				1.75 µM	1.5 µM	1.85 µM	1.29 µM		2.96 µM	1.2 µM	3.1 µM
Cc1cc2c(C(C)C)c(O)c(O)c3coc(/c1=c1/c(C)cc4c(C(C)C)c(=O)c(=O)c5coc1c45)c32	12.3 µM	5.34 µM	29.1 µM	12.9 µM	22.2 µM	15.6 µM	23.1 µM	17.4 µM												
CCc1ccccc1NC(=O)CCc1nc(=S)[nH][nH]1	> 100 µM	> 100 µM	> 100 µM	> 100 µM	> 100 µM	> 100 µM	> 100 µM	> 100 µM												
Cc1cc2c(cn1)C(=O)OCC2	> 100 µM		> 100 µM	> 100 µM	> 100 µM	> 100 µM	> 100 µM	> 100 µM												
Cc1ccccc1C(C#N)/C(=N/NC(=O)c1cc2ccccc2cc1O)C(=O)Nc1cccc(Cl)c1 (configuration not stated)	> 100 µM	72.5 µM	> 100 µM	69.9 µM	> 100 µM	> 100 µM	35.6 µM	> 100 µM												
C/C(=N\NC(N)=S)c1ccc(/C(C)=N/NC(N)=S)cc1	> 100 µM	> 100 µM	> 100 µM	> 100 µM	> 100 µM	> 100 µM	> 100 µM	> 100 µM												
CCCCCCN1C(=O)/C(=c2\sc3n(c2=O)C2C(NN=3)N(CC)C(=O)N2CC)c2ccccc21 (configuration not stated)	> 50 µM	38.3 µM		1.59 µM	> 50 µM	> 50 µM	2.31 µM		1.51 µM	6.34 µM	> 50 µM	2.21 µM		0.831 µM	3.03 µM	0.762 µM		2.09 µM	1.12 µM	3.28 µM
CC1(C)CCSC(/C=C/c2ccccc2)=N1	38.8 µM		25.6 µM	43.5 µM	43 µM	46 µM		38.6 µM			22 µM									> 100 µM
COc1ccccc1NC(=O)CC(=O)n1nc(C)c(N=Nc2ccccc2F)c1C	> 100 µM	> 100 µM		> 64 µM	> 100 µM	> 100 µM	28.3 µM	> 100 µM												
